Legend:
Conditions in all cases: 1 µM; inhibitor
[1] = target: MYLK2 (Homo sapiens, UniProt Q9H1R3)
[2] = target: ABL2 (Homo sapiens, UniProt P42684)
[3] = target: CDK4 (Homo sapiens, UniProt P11802)
[4] = target: CDK4/CycD2 (Homo sapiens, UniProt P11802)
[5] = target: ACVR1B (Homo sapiens, UniProt P36896)
[6] = target: MINK1 (Homo sapiens, UniProt Q8N4C8)
[7] = target: IKKa (Homo sapiens, UniProt O15111)
[8] = target: MATK (Homo sapiens, UniProt P42679)
[9] = target: CK2a1 (Homo sapiens, UniProt P68400)
[10] = target: RON (Homo sapiens, UniProt Q04912)
[11] = target: IKKe (Homo sapiens, UniProt Q14164)
[12] = target: MAPKAPK5 (Homo sapiens, UniProt Q8IW41)
[13] = target: MARK4 (Homo sapiens, UniProt Q96L34)
[14] = target: PKCd (Homo sapiens, UniProt Q05655)
[15] = target: PKCa (Homo sapiens, UniProt P17252)
[16] = target: PIM1 (Homo sapiens, UniProt P11309)
[17] = target: PAK4 (Homo sapiens, UniProt O96013)
[18] = target: PRKX (Homo sapiens, UniProt P51817)
[19] = target: CLK2 (Homo sapiens, UniProt P49760)
[20] = target: CDK4/CycD3 (Homo sapiens, UniProt P11802)
[21] = target: BLK (Homo sapiens, UniProt P51451)
[22] = target: FAK (Homo sapiens, UniProt Q05397)
[23] = target: ACVR1 (Homo sapiens, UniProt Q04771)
[24] = target: TXK (Homo sapiens, UniProt P42681)
[25] = target: MAP4K4 (Homo sapiens, UniProt O95819)
[26] = target: MLK4 (Homo sapiens, UniProt Q5TCX8)
[27] = target: PKCg (Homo sapiens, UniProt P05129)
[28] = target: DYRK4 (Homo sapiens, UniProt Q9NR20)
[29] = target: STK39 (Homo sapiens, UniProt Q9UEW8)
[30] = target: MYLK3 (Homo sapiens, UniProt Q32MK0)
[31] = target: MAP3K9 (Homo sapiens, UniProt P80192)

FAK, sequence (Q05397 whole entry): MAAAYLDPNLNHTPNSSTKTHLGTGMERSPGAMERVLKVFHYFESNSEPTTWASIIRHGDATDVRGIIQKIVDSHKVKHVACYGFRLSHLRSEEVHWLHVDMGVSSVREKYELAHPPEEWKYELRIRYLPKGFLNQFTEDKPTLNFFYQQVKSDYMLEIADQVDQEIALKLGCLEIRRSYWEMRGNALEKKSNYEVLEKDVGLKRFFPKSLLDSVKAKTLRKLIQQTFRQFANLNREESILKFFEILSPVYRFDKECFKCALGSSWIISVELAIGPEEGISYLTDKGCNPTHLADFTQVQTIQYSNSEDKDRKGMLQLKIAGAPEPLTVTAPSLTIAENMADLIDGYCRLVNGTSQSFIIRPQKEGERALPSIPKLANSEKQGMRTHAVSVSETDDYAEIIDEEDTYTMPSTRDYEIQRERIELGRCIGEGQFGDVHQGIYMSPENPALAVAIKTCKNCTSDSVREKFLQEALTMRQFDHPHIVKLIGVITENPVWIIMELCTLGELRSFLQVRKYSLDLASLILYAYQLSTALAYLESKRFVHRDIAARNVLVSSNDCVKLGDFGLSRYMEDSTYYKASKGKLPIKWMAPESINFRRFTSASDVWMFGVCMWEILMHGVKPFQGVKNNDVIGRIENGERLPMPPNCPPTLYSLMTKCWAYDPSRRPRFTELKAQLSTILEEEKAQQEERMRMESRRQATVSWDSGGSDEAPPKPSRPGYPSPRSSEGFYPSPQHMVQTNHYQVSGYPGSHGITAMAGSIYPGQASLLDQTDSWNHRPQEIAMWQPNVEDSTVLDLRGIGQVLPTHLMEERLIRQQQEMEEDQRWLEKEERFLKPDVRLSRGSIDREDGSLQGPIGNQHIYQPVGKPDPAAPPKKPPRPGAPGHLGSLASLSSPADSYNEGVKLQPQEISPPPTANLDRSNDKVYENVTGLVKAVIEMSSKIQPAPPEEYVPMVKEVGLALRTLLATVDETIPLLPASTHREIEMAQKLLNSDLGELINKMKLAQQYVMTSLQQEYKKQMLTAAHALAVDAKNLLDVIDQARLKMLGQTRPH
MINK1, sequence (Q8N4C8 whole entry): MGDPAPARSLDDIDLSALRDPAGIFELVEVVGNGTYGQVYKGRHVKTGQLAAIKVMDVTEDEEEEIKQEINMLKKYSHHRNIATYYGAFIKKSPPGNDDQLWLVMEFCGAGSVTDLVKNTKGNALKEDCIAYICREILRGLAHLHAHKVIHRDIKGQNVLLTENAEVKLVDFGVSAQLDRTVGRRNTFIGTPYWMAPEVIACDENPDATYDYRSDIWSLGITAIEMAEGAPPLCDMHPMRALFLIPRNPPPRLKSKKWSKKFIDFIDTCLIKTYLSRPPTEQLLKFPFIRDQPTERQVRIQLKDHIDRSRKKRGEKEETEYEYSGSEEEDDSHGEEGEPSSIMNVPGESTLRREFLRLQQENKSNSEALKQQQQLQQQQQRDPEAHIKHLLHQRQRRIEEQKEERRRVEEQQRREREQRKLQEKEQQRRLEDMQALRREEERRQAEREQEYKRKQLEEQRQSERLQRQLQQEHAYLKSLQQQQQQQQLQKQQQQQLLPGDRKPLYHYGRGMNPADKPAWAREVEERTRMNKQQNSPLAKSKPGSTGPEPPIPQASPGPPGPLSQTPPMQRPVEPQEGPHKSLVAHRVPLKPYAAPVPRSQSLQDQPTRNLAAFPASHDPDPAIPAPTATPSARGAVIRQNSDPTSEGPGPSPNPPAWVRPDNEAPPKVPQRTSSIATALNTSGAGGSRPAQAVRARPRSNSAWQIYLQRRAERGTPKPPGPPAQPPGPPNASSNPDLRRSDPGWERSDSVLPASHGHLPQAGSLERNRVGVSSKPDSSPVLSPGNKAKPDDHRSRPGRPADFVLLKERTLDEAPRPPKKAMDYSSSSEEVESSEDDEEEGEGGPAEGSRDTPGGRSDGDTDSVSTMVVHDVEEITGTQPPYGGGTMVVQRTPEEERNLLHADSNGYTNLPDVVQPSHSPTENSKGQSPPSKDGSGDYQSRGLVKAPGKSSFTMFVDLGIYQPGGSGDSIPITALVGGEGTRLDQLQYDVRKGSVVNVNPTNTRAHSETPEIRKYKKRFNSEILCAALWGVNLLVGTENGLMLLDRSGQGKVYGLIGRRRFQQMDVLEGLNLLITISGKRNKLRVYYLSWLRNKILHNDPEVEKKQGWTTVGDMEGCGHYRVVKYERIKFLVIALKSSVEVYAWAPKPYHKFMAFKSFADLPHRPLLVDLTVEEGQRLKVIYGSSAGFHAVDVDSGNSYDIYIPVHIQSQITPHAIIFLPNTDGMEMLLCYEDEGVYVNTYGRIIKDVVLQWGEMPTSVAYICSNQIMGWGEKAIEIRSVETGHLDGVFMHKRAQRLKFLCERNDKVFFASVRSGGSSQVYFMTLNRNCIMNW
ACVR1B, sequence (P36896 whole entry): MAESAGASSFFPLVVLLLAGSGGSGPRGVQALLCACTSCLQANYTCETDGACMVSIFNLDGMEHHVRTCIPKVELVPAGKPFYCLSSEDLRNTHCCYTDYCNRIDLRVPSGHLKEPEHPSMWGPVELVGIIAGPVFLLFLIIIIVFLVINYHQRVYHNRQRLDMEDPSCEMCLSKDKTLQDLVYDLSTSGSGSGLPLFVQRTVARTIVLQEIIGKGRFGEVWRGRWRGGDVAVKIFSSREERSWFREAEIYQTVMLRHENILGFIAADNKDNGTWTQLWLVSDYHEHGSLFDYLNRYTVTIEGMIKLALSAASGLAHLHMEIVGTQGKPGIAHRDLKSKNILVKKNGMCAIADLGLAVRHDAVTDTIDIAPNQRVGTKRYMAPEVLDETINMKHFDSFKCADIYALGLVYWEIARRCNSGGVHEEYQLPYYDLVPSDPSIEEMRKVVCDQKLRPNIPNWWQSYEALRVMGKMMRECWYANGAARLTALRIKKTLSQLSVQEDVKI
PAK4, sequence (O96013 whole entry): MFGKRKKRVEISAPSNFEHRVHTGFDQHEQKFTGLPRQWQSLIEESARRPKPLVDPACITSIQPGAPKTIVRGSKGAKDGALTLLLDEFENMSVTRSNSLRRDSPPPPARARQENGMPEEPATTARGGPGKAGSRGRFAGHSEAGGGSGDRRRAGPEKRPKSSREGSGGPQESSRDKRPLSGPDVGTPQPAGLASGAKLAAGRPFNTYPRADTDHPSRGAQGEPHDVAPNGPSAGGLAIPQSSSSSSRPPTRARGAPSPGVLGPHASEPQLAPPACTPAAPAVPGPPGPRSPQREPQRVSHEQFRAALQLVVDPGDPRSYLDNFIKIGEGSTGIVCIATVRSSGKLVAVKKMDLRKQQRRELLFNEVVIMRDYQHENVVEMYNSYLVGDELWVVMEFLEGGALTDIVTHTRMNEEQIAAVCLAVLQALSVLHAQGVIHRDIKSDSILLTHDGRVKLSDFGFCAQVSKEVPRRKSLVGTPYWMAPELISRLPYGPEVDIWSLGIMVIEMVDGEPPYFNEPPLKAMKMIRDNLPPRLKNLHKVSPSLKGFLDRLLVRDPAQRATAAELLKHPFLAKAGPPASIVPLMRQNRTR
PIM1, sequence (P11309 whole entry): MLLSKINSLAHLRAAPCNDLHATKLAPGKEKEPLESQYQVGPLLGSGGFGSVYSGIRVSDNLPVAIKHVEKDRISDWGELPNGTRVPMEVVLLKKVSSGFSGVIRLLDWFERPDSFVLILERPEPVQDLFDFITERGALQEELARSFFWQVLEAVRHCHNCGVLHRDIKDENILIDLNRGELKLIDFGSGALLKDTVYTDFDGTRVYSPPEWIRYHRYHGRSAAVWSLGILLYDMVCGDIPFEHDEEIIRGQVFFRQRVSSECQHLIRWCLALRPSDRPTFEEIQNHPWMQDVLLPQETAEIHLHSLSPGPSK
CLK2, sequence (P49760 whole entry): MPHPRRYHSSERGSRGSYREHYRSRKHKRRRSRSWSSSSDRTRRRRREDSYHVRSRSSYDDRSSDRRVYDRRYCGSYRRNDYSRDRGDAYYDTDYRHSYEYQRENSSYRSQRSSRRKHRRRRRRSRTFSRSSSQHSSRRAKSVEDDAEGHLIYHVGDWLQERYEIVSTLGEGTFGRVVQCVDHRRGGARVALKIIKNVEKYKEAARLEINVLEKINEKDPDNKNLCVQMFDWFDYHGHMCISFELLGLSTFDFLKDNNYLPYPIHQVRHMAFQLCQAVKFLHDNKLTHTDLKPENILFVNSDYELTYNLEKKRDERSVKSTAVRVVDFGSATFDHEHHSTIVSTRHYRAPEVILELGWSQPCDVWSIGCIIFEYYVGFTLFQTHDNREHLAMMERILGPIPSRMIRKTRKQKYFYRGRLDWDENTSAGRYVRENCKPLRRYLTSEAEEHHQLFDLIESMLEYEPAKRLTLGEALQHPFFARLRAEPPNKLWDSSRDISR
CDK4, sequence (P11802 whole entry): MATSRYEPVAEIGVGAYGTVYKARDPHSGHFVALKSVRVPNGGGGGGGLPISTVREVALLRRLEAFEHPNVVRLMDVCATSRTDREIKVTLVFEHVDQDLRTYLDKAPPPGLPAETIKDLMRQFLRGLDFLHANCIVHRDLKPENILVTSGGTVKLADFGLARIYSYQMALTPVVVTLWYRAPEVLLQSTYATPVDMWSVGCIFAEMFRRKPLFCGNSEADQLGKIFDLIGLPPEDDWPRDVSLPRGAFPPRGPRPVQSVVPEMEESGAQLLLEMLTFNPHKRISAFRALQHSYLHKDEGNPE
CDK4/CycD2, sequence (P11802 whole entry): as above
CDK4/CycD2, sequence (P30279 whole entry partner): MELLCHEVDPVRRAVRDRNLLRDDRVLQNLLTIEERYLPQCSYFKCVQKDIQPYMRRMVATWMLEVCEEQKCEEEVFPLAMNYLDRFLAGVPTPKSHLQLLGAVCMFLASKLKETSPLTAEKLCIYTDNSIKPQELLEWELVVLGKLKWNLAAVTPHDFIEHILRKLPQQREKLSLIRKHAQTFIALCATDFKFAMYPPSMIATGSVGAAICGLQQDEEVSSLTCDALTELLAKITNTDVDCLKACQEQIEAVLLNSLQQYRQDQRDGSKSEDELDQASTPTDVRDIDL

O=C1NCCCCCNc2nc(c3ccccc3n2)Nc2cc1[nH]n2 [21c, (Z)-3^1H-2,5,11-triaza-1(4,2)-quinazolina-3(3,5)-pyrazolacycloundecaphan-4-one]
21c Remaining activity, percent of control [%] [1]: 79.0% | 21c Remaining activity, percent of control [%] [2]: 84.2% | 21c Remaining activity, percent of control [%] [3]: 84.5% | 21c Remaining activity, percent of control [%] [4]: 106.8% | 21c Remaining activity, percent of control [%] [5]: 85.2% | 21c Remaining activity, percent of control [%] [6]: 70.0% | 21c Remaining activity, percent of control [%] [7]: 80.7% | 21c Remaining activity, percent of control [%] [8]: 78.6% | 21c Remaining activity, percent of control [%] [9]: 95.5% | 21c Remaining activity, percent of control [%] [10]: 94.5% | 21c Remaining activity, percent of control [%] [11]: 103.6% | 21c Remaining activity, percent of control [%] [12]: 110.4% | 21c Remaining activity, percent of control [%] [13]: 100.1% | 21c Remaining activity, percent of control [%] [14]: 91.4% | 21c Remaining activity, percent of control [%] [15]: 107.7% | 21c Remaining activity, percent of control [%] [16]: 101.3% | 21c Remaining activity, percent of control [%] [17]: 95.1% | 21c Remaining activity, percent of control [%] [18]: 93.9% | 21c Remaining activity, percent of control [%] [19]: 64.6% | 21c Remaining activity, percent of control [%] [20]: 111.1% | 21c Remaining activity, percent of control [%] [21]: 98.6% | 21c Remaining activity, percent of control [%] [22]: 91.4% | 21c Remaining activity, percent of control [%] [23]: 81.0% | 21c Remaining activity, percent of control [%] [24]: 98.2% | 21c Remaining activity, percent of control [%] [25]: 81.0% | 21c Remaining activity, percent of control [%] [26]: 99.1% | 21c Remaining activity, percent of control [%] [27]: 79.4% | 21c Remaining activity, percent of control [%] [28]: 95.6% | 21c Remaining activity, percent of control [%] [29]: 49.5% | 21c Remaining activity, percent of control [%] [30]: 86.4% | 21c Remaining activity, percent of control [%] [31]: 95.7%
